Measurements from PMC5671725, “Fluorinated Adenosine A2A Receptor Antagonists Inspired by Preladenant as Potential Cancer Immunotherapeutics” (International Journal of Medicinal Chemistry, 2017).
In brackets after ≈: the same amount, converted by molar mass.

How the values were obtained:
[1] = test system: CL8-1 melanoma; set-up: method as in PMID 18163162, PMID 17404693, PMID 18404426, PMID 18311159, PMID 19201652; settings: mice; cited from earlier work
[2] = target: T1, A2AR (Mus musculus, UniProt Q60613); set-up: endogenous in cells; host or cells: primary lymphocytes from the spleen of C57/BL6 mice; method as in PMID 24126093; settings: compared with xanthine 2; cited from earlier work
[3] = target: T1, A2AR; set-up: endogenous in cells; method as in PMID 24126093; settings: compared with xanthine 2; cited from earlier work
[4] = target: T1, A2AR; experiment: Cytokine release assay: IFN-gamma secretion by anti-CD3 activated splenocytes treated with CGS; type: cell-based, C57BL/6 mice; set-up: endogenous in cells; settings: 0.1 µg/mL anti-CD3, 1 µM CGS plus 1 µM compound, one day, ELISA
Procedure: The second immunoassay assesses secretion of the cytokine IFN-gamma, since it is considered to be sensitive to the A2AR signaling pathway. In these assays, during T cell receptor (TCR) activation by the CD3 ligand, C57BL/6 mice splenocytes T cells are incubated with A2AR agonist CGS to inhibit IFN-gamma secretion resulting from A2AR-induced immunosuppression via intracellular cAMP. Effective A2AR antagonists block the A2AR-activated signal, thus restoring secretion of the cytokine to potentiate and prolong the immune response.
Figure 6 The IFN-gamma production by splenocytes after activation with 0.1 µg/mL anti-CD3 and when treated with vehicle, 1 µM CGS, and 1 µM CGS plus 1 µM compounds 29, 2 (KW-6002), 3 (KW-PEG), and 4 (preladenant) separately is shown. The IFN-gamma levels were determined in the supernatant one day following stimulation using quantitative ELISA and are expressed as pg/mL. Data shown represent mean ± SEM of triplicate samples.
(§1) Measuring functionality of A2AR antagonism by cAMP assay
Stimulation of intracellular cAMP production and measurement of cAMP levels were performed as described previously.[18b] […] Levels of cAMP were determined by ELISA (Amersham Biosciences, Buckinghamshire, UK). […]

[5] = set-up: method as in PMID 24164628, PMID 25311639, PMID 25174927; settings: Parkinson's disease; cited from earlier work
[6] = target: T2, A2ARs (Mus musculus, UniProt Q60613); experiment: Concanavalin A (ConA)-induced liver damage assay; type: in vivo; settings: female C57BL/6 mice, 2 mg kg^-1 compound then Con A 20 mg kg^-1, evaluated at 8 h
T2 construct: from tissue; host or cells: whole animal, female C57BL/6 mice (in vivo)
Procedure: To select lead compounds for immunotherapy application, an in vivo Concanavalin A (ConA)-induced liver damage assay was carried out in C57BL/6 mice through the pharmacological activation and deactivation of A2ARs. A variety of compounds were screened including 2, 3, and 4 [10, 18, 19]. […] Fluorinated analogs were envisioned to potentially serve as leads to ultimately be labeled at the distal position with fluorine-18 (t1/2 = 109.8 min), for diagnostic imaging with positron emission tomography (PET). A series of fluorinated PEG groups with increasing chain lengths were proposed for chemical modification to map the structure-activity relationship (SAR). Such modifications increase both hydrophilicity and molecular weight (MW), potentially to reduce blood-brain barrier (BBB) penetration as predicted by the central nervous system multiparameter optimization (MPO) score reported by Wager et al..
Figure 2 ConA-induced liver damage in C57BL/6 mice via CGS (6), 2, 3 and 4. Female C57BL/6 mice (n = 5) were first injected with A2AR agonist CGS (6, 2 mg kg^−1), 2 mg kg^−1 2, 3, and 4 separately, and then Con A (20 mg kg^−1). Con A-induced liver damage evaluated at 8 h.

[7] = target: T1, A2AR; experiment: Inhibition of A2AR-induced (CGS21680) intracellular cAMP accumulation in lymphocytes; type: cell-based, C57/BL6 mice; set-up: endogenous in cells; host or cells: primary lymphocytes from the spleen of C57/BL6 mice; settings: 1 µM CGS plus 1 μM compound, 15 min, cAMP ELISA
Procedure: Bioassay of compounds 27–31 and 40 and their parent compounds (4 and 5a) was conducted using two functional assays that evaluate A2AR binding-dependent signaling through A2AR on the surface of T cells. The first assay screens compounds on the basis of their extent of inhibition of A2AR-induced intracellular cAMP accumulation in A2AR expressing lymphocytes. The A2AR agonist, CGS21680 (CGS, 6), was used to activate A2AR.
Figure 4 Intracellular cAMP levels in lymphocytes after incubation with vehicle, 1 µM CGS, and 1 µM CGS plus 1 μM of compounds 4 (preladenant), 27–31, 5a (tozadenant), 40, 2 (KW-6002), and 3 (KW-PEG) are shown. The intracellular cAMP levels were determined 15 min following stimulation using quantitative cAMP ELISA and are expressed as fmol/10^6 cells. Data shown represent mean ± SEM of triplicate samples.
as §1
Stimulation of intracellular cAMP production and measurement of cAMP levels were performed as described previously.[18b] Lymphocytes were isolated from the spleen of C57/BL6 mice and suspended at a concentration of 400,000 cells/well, and then treated with 1 µM CGS 21680 6 (A2AR-specific agonist; from Tocris, Ellisville, MO) with or without KW-6002 2, KW-PEG 3, preladenant 4, tozadenant 5a and their PEGylated analogs 27-31 and 40 (at a concentration of […]). The cells were incubated for 15 min at 37 °C , and the reaction was stopped by addition of 1 N hydrochloric acid. Levels of cAMP were determined by ELISA (Amersham Biosciences, Buckinghamshire, UK). All treatment groups were performed in triplicate. […]

[8] = Intrinsic clearance in human liver microsomes; type: in vitro ADME; settings: read-out: HLM CLint
Procedure: (§2) buffer (pH 7.4 phosphate buffer) was measured by LC-MS/MS after equilibration at 37°C in a dialysis chamber. The fraction unbound (fu) is reported.
(§3) In vitro intrinsic clearance was determined from human liver microsomes or rat hepatocytes using standard methods. Following incubation and preparation, the samples were analyzed using […]
(§4) µl/min/mg or µl/min/1 million cells.

[9] = Log D7.4 shake-flask octanol-water; type: physicochemical; settings: octanol / 10 mM sodium phosphate pH 7.4, read-out: logD7.4
Procedure: Determination of Physicochemical Properties […]
A shake-flask method was employed to determine octanol-water distribution coefficients at pH
7.4 (Log D7.4). The aqueous solution used was 10 mM sodium phosphate pH 7.4 buffer. The
method was validated for Log D7.4 ranging from -2 to 5.0. […]

[10] = Human plasma protein binding (equilibrium dialysis, RED device); type: in vitro ADME; settings: pH 7.4, 10 µM initial concentration, 37°C, read-out: Human PPB (converted)
Procedure: Figure S1. Docking results of compounds 27-29 via Glide XP method. The H-bond interaction is represented as a pink arrow, pi-pi stacking as a green arrow. (A) Compound 27 docking pattern. (B) Compound 28 docking pose. (C) Compound 29 docking result. Pictures are rendered […]
(§5) Determination of Physicochemical Properties
(§6) Aqueous pH 7.4 Solubility
(§7) Compounds were dried down from 10 mM DMSO solutions using centrifugal evaporation techniques. Phosphate buffer (0.1 M pH 7.4) was added and StirStix inserted in the glass vials.
Agitation was then performed at a constant temperature of 25°C for 20 -24 hours. The vials were then subjected to double centrifugation (with a tip wash in between) to eliminate any residues of the dried compound. The solutions were then diluted and quantitated using LC/MS/MS.
A shake-flask method was employed to determine octanol-water distribution coefficients at pH 7.4 (Log D7.4). The aqueous solution used was 10 mM sodium phosphate pH 7.4 buffer. The method was validated for Log D7.4 ranging from -2 to 5.0.
Human Plasma Protein Binding (PPB)
PPB was determined using equilibrium dialysis (RED device) to separate free from bound compound. The amount of compound in plasma (10 µM initial concentration) and in dialysis […]
as §2, §3, §4

[11] = Intrinsic clearance in rat hepatocytes; type: in vitro ADME
Procedure: as §2, §3, §4

[12] = Aqueous pH 7.4 solubility; type: physicochemical; settings: aqueous buffer, thermodynamic from solid; 0.1 M phosphate buffer pH 7.4, 25°C, 20-24 hours
Procedure: as §5, §6, §7
Agitation was then performed at a constant temperature of 25°C for 20 -24 hours. The vials were then subjected to double centrifugation (with a tip wash in between) to eliminate any residues of the dried compound. The solutions were then diluted and quantitated using LC/MS/MS. […]

T1 sequence (Q60613 whole entry): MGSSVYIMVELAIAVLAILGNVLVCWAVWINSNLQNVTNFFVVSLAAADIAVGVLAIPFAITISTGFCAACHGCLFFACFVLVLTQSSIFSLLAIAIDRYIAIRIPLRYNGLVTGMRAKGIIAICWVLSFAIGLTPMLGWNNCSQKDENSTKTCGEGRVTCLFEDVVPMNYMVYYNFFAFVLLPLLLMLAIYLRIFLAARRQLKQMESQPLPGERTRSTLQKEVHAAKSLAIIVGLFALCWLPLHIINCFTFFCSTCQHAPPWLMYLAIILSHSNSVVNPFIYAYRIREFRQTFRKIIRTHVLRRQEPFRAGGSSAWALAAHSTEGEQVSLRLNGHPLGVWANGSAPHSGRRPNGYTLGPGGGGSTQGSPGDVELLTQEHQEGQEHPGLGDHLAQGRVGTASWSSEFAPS
T2 sequence (Q60613 whole entry): as above

Structure (SMILES)	Antagonism of CGS-mediated intracellular cAMP accumulation [7]	microsomal CLint [8] [µL/min/mg]	logD [9]	fraction unbound at 10 µM [10]	Rat hepatocyte CLint [11] [μL/min/10^6]	solubility [12] [µM]	also measured
Nc1nc(NCCc2ccc(O)cc2)nc2nc(-c3ccco3)nn12 [Compound 1, ZM241385]	–	–	–	–	–	–	Growth of CL8-1 melanoma [1]: delayed growth of CL8-1 melanoma in mice; Levels of endogenous antitumor T cells [1]: increased levels of endogenous antitumor T cells
CCn1c(=O)c2c(nc(/C=C/c3ccc(C(=O)OCCOCCOCCOCCOCCOCCOCCOCCOC)c(OC)c3)n2C)n(CC)c1=O [Compound 3]	–	–	–	–	–	–	cAMP suppression [2]: enhanced properties; Cytokine IFN-gamma restoration [3]: enhanced properties
COCCOc1ccc(N2CCN(CCn3ncc4c3nc(N)n3nc(-c5ccco5)nc43)CC2)cc1 [Compound 4, preladenant]	–	–	–	–	–	–	Restoration of IFN-gamma secretion [4]: superior restoration of IFN-gamma secretion compared to either 2 or 3; Efficacy in Phase III trials [5]: failed to show efficacy; ConA-induced liver damage [6]: most severe immune induced liver damage
COc1ccc(N2CCOCC2)c2sc(NC(=O)N3CCC(C)(O)CC3)nc12 [Compound 5a, tozadenant, reference compound]	inferior antagonism to that of compounds 2 and 3	–	–	–	–	–	–
Nc1nc2c(cnn2CCN2CCN(c3ccc(OCCF)cc3)CC2)c2nc(-c3ccco3)nn12 [Compound 27]	–	16.5	2.8	0.01	29.9	74 (≈ 36.4 µg/mL)	–
Nc1nc2c(cnn2CCN2CCN(c3ccc(OCCOCCF)cc3)CC2)c2nc(-c3ccco3)nn12 [Compound 28]	–	71.9	2.5	0.013	12.8	2 (≈ 1.07 µg/mL)	–
Nc1nc2c(cnn2CCN2CCN(c3ccc(OCCOCCOCCF)cc3)CC2)c2nc(-c3ccco3)nn12 [Compound 29]	–	66.1	2.3	0.017	72.9	10 (≈ 5.8 µg/mL)	Restoration of IFN-gamma secretion [4]: superior restoration of IFN-gamma secretion compared to either 2 or 3
Nc1nc2c(cnn2CCN2CCN(c3ccc(OCCOCCOCCOCCOCCOCCF)cc3)CC2)c2nc(-c3ccco3)nn12 [Compound 30]	decreased antagonism	–	–	–	–	–	–
COCCOCCOCCOCCOCCOCCOCCOCCOc1ccc(N2CCN(CCn3ncc4c3nc(N)n3nc(-c5ccco5)nc43)CC2)cc1 [Compound 31]	decreased antagonism	–	–	–	–	–	–
COCCOCCOCCOCCOCCOCCOCCOCCOc1ccc(N2CCN(C(=O)Nc3nc4c(OC)ccc(N5CCOCC5)c4s3)CC2)cc1 [Compound 40]	no suppression of intracellular cAMP accumulation	–	–	–	–	–	–
